Experimental data taken from BigSolDB 2.1.

O=C(O)CSc1ccc2ccccc2c1
solubility (mole fraction)
Conditions	278.15 K	283.15 K	288.15 K	293.15 K	298.15 K	303.15 K	308.15 K	313.15 K	318.15 K	323.15 K
in DMF	0.00524	0.00586	0.0066	0.00738	0.00828	0.00917	0.0101	0.0112	0.0122	0.0135
in ethanol	0.0014	0.0018	0.00234	0.00282	0.00336	0.00394	0.00456	0.0052	0.00584	0.00669
in isopropanol	0.000227	0.0003	0.000383	0.000481	0.00058	0.000682	0.000801	0.000919	0.00105	0.0012
in methanol	0.00053	0.000675	0.000828	0.00102	0.00119	0.0014	0.0016	0.0018	0.00204	0.00235
in water	1.42e-06	1.95e-06	2.54e-06	3.16e-06	3.88e-06	4.53e-06	5.33e-06	6.1e-06	7e-06	8.05e-06
